# Experimental data from ChEMBL document CHEMBL1145498, “A systematic interaction map of validated kinase inhibitors with Ser/Thr kinases” (Proc Natl Acad Sci U S A, 2007).
# Target: Ribosomal protein S6 kinase alpha-3 (Homo sapiens) (UniProt P51812)
# Sequence (P51812 whole entry): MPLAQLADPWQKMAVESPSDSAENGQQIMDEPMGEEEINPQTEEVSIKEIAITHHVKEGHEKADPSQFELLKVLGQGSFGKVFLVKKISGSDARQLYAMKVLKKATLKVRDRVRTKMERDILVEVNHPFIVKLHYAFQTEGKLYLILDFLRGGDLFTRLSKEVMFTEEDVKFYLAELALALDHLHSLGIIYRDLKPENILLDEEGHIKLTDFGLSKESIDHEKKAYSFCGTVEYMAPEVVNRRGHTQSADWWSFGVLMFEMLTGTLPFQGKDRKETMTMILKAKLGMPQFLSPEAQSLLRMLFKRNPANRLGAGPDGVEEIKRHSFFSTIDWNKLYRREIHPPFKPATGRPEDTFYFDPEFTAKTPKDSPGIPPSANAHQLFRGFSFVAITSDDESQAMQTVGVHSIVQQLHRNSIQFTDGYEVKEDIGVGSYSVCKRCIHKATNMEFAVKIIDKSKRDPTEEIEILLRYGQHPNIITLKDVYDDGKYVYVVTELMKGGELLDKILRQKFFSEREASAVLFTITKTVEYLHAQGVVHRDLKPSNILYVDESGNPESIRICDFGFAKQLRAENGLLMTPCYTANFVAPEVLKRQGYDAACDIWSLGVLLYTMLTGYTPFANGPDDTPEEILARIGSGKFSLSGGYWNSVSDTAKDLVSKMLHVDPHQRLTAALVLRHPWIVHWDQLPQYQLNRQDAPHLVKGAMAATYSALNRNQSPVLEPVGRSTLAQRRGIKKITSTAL
row,ΔTm [°C],Compound
1,4.8,Cn1cc(/C=C2/C(=O)Nc3ccc(S(N)(=O)=O)cc32)c2ccccc21
2,6.3,C#Cc1cccc(Nc2ncnc3cc(OCCOC)c(OCCOC)cc23)c1
3,5.3,COc1cc2ncnc(Nc3ccc(F)c(Cl)c3)c2cc1OCCCN1CCOCC1

# Target: Calcium/calmodulin-dependent protein kinase type II subunit delta (Homo sapiens) (UniProt Q13557)
row,ΔTm [°C],Compound
1,2.5,Cn1cc(/C=C2/C(=O)Nc3ccc(S(N)(=O)=O)cc32)c2ccccc21
2,-0.3,C#Cc1cccc(Nc2ncnc3cc(OCCOC)c(OCCOC)cc23)c1
3,0.1,COc1cc2ncnc(Nc3ccc(F)c(Cl)c3)c2cc1OCCCN1CCOCC1

# Target: T1, Serine/threonine-protein kinase VRK1 (Homo sapiens) (UniProt Q99986)
# T1 sequence (whole entry): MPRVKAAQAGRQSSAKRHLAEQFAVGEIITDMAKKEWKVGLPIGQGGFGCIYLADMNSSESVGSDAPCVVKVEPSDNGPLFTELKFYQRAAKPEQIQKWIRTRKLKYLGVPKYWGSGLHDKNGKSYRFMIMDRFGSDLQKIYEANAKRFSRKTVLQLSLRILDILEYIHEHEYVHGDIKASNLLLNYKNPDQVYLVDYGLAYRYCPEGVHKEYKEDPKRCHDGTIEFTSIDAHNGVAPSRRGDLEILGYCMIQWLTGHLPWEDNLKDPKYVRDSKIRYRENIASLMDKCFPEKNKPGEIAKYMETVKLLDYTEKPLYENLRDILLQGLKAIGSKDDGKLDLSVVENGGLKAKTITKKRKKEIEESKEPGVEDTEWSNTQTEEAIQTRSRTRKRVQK
row,ΔTm [°C],Compound
1,1.6,Cn1cc(/C=C2/C(=O)Nc3ccc(S(N)(=O)=O)cc32)c2ccccc21
2,0.3,C#Cc1cccc(Nc2ncnc3cc(OCCOC)c(OCCOC)cc23)c1
3,0.5,COc1cc2ncnc(Nc3ccc(F)c(Cl)c3)c2cc1OCCCN1CCOCC1

# Target: Mitogen-activated protein kinase 11 (Homo sapiens, UniProt Q15759)
# Sequence (Q15759 whole entry): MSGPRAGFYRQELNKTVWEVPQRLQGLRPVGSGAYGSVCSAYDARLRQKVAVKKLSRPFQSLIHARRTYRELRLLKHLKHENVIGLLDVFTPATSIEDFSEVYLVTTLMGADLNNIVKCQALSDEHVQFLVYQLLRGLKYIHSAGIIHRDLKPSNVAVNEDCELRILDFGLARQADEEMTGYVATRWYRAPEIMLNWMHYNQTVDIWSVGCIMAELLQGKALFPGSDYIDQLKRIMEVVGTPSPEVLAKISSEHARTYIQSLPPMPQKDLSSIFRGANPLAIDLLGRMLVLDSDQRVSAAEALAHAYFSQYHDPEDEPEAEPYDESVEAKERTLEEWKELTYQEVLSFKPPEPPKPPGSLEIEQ
row,ΔTm [°C],Compound
1,0.2,Cn1cc(/C=C2/C(=O)Nc3ccc(S(N)(=O)=O)cc32)c2ccccc21
2,0,C#Cc1cccc(Nc2ncnc3cc(OCCOC)c(OCCOC)cc23)c1
3,0.8,COc1cc2ncnc(Nc3ccc(F)c(Cl)c3)c2cc1OCCCN1CCOCC1

# Target: T2, Myotonin-protein kinase (Homo sapiens) (UniProt Q09013)
# T2 sequence (whole entry): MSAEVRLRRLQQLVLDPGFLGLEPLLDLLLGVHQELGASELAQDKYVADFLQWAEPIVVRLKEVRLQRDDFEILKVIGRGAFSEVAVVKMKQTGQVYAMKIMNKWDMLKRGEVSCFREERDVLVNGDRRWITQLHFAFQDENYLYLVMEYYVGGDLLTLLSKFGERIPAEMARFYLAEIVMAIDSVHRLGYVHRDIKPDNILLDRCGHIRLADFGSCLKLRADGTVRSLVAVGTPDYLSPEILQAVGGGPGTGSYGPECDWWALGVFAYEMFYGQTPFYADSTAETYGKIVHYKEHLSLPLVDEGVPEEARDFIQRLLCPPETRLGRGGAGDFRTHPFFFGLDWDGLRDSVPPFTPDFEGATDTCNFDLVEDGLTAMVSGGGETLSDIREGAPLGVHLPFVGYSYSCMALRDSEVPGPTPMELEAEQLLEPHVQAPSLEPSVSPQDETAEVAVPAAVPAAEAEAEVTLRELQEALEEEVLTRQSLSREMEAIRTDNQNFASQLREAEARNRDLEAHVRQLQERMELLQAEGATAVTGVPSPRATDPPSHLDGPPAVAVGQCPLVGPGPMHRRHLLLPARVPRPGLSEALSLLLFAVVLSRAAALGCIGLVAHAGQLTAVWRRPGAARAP
row,ΔTm [°C],Compound
1,3.7,Cn1cc(/C=C2/C(=O)Nc3ccc(S(N)(=O)=O)cc32)c2ccccc21
2,3.4,C#Cc1cccc(Nc2ncnc3cc(OCCOC)c(OCCOC)cc23)c1
3,3.6,COc1cc2ncnc(Nc3ccc(F)c(Cl)c3)c2cc1OCCCN1CCOCC1

# Target: Serine/threonine-protein kinase pim-2 (Homo sapiens, UniProt Q9P1W9)
# Sequence (Q9P1W9 whole entry, looked up): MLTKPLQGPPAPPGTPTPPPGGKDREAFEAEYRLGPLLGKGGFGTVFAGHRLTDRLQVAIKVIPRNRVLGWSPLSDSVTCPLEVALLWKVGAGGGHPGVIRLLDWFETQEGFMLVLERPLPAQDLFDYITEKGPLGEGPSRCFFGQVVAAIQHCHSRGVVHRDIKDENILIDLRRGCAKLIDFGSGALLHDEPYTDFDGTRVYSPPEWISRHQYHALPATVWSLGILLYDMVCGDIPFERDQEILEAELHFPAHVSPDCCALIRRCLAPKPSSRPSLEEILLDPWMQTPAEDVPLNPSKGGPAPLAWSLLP
row,ΔTm [°C],Compound
1,8.2,Cn1cc(/C=C2/C(=O)Nc3ccc(S(N)(=O)=O)cc32)c2ccccc21
2,0,C#Cc1cccc(Nc2ncnc3cc(OCCOC)c(OCCOC)cc23)c1
3,0.6,COc1cc2ncnc(Nc3ccc(F)c(Cl)c3)c2cc1OCCCN1CCOCC1

# Target: Serine/threonine-protein kinase pim-1 (Homo sapiens) (UniProt P11309)
# Sequence (P11309 whole entry, looked up): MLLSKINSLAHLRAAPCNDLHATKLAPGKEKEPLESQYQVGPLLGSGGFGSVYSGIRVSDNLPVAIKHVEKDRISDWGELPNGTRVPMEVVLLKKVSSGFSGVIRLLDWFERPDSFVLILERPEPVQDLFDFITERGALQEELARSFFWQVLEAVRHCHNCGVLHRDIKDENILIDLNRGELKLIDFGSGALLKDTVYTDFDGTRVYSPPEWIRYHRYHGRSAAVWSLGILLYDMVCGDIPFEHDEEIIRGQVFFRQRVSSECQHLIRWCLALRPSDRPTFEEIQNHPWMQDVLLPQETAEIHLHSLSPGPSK
row,ΔTm [°C],Compound
1,3.1,Cn1cc(/C=C2/C(=O)Nc3ccc(S(N)(=O)=O)cc32)c2ccccc21
2,0,C#Cc1cccc(Nc2ncnc3cc(OCCOC)c(OCCOC)cc23)c1
3,3.4,COc1cc2ncnc(Nc3ccc(F)c(Cl)c3)c2cc1OCCCN1CCOCC1

# Target: Calcium/calmodulin-dependent protein kinase type II subunit gamma (Homo sapiens) (UniProt Q13555)
# Sequence (Q13555 whole entry): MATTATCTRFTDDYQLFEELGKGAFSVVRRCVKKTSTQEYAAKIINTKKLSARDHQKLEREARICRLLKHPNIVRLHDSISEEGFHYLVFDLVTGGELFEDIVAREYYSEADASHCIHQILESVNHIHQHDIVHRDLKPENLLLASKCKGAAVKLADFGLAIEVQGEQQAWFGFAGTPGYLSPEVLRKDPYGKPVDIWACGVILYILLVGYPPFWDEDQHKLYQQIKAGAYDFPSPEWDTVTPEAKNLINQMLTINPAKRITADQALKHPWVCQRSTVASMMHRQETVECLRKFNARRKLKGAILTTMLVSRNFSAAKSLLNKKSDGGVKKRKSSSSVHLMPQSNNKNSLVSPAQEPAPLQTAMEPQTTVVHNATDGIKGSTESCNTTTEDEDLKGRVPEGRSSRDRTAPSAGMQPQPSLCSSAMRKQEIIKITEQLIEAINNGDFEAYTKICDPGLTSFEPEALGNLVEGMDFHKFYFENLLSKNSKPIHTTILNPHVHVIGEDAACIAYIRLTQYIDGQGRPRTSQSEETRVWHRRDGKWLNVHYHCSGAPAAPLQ
row,ΔTm [°C],Compound
1,0.5,Cn1cc(/C=C2/C(=O)Nc3ccc(S(N)(=O)=O)cc32)c2ccccc21
2,0.3,C#Cc1cccc(Nc2ncnc3cc(OCCOC)c(OCCOC)cc23)c1
3,0.4,COc1cc2ncnc(Nc3ccc(F)c(Cl)c3)c2cc1OCCCN1CCOCC1

# Target: Serine/threonine-protein kinase PAK 5 (Homo sapiens) (UniProt Q9P286)
row,ΔTm [°C],Compound
1,4.3,Cn1cc(/C=C2/C(=O)Nc3ccc(S(N)(=O)=O)cc32)c2ccccc21
2,0.1,C#Cc1cccc(Nc2ncnc3cc(OCCOC)c(OCCOC)cc23)c1
3,0.2,COc1cc2ncnc(Nc3ccc(F)c(Cl)c3)c2cc1OCCCN1CCOCC1

# Target: T3, Lymphokine-activated killer T-cell-originated protein kinase (Homo sapiens) (UniProt Q96KB5)
# T3 sequence (whole entry): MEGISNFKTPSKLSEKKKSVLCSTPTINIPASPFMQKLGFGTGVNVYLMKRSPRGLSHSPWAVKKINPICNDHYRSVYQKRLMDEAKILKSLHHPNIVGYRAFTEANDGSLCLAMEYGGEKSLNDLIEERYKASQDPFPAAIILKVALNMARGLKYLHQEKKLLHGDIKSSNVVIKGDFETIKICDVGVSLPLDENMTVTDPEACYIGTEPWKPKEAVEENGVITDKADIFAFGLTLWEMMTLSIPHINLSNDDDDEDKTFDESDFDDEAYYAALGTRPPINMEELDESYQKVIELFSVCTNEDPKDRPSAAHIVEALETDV
row,Compound,ΔTm [°C]
1,Cn1cc(/C=C2/C(=O)Nc3ccc(S(N)(=O)=O)cc32)c2ccccc21,-1.2
2,C#Cc1cccc(Nc2ncnc3cc(OCCOC)c(OCCOC)cc23)c1,0.7
3,COc1cc2ncnc(Nc3ccc(F)c(Cl)c3)c2cc1OCCCN1CCOCC1,0.6

# Target: Dual specificity mitogen-activated protein kinase kinase 2 (Homo sapiens, UniProt P36507)
# Sequence (P36507 whole entry): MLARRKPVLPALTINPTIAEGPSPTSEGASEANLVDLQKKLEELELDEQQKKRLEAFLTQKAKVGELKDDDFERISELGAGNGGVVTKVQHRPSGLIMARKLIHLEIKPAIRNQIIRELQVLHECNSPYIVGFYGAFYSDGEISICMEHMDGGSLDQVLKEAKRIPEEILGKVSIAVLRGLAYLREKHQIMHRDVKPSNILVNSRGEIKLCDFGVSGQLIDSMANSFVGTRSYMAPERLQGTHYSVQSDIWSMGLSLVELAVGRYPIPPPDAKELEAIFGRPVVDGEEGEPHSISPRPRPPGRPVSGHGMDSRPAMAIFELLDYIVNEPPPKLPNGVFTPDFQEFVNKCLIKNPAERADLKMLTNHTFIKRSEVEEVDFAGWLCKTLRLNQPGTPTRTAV
row,ΔTm [°C],Compound
1,1.1,Cn1cc(/C=C2/C(=O)Nc3ccc(S(N)(=O)=O)cc32)c2ccccc21
2,0.6,C#Cc1cccc(Nc2ncnc3cc(OCCOC)c(OCCOC)cc23)c1
3,0.2,COc1cc2ncnc(Nc3ccc(F)c(Cl)c3)c2cc1OCCCN1CCOCC1

# Target: Serine/threonine-protein kinase OSR1 (Homo sapiens) (UniProt O95747)
# Sequence (O95747 2-527 limits assumed): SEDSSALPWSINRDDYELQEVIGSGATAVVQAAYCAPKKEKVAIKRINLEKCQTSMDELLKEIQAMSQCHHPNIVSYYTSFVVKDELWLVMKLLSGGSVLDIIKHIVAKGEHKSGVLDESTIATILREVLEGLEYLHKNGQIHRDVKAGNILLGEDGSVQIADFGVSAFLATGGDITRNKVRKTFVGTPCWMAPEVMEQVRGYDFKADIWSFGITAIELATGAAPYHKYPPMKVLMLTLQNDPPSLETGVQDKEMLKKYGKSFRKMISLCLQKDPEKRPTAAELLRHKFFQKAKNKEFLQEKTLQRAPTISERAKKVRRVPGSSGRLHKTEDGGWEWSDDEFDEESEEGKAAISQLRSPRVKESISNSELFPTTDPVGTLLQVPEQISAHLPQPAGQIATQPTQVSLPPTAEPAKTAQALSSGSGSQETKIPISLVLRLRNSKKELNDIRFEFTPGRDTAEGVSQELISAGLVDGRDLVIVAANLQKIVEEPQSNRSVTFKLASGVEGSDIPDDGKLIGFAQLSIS
row,ΔTm [°C],Compound
1,3.7,Cn1cc(/C=C2/C(=O)Nc3ccc(S(N)(=O)=O)cc32)c2ccccc21
2,0,C#Cc1cccc(Nc2ncnc3cc(OCCOC)c(OCCOC)cc23)c1
3,0.2,COc1cc2ncnc(Nc3ccc(F)c(Cl)c3)c2cc1OCCCN1CCOCC1

# Target: Death-associated protein kinase 3 (Homo sapiens) (UniProt O43293)
# Sequence (O43293 whole entry, looked up): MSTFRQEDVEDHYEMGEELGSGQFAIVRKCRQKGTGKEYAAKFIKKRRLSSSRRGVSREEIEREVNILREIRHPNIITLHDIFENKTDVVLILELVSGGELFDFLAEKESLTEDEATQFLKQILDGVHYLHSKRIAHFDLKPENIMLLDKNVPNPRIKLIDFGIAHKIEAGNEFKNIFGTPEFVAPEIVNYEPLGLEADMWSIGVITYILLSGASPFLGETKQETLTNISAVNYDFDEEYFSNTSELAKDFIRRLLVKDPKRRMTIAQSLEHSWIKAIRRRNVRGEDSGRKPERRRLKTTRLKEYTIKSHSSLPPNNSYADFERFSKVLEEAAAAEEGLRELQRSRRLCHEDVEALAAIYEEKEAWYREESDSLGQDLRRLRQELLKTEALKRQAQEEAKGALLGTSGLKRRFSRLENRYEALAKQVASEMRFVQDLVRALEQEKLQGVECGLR
row,Compound,ΔTm [°C]
1,Cn1cc(/C=C2/C(=O)Nc3ccc(S(N)(=O)=O)cc32)c2ccccc21,0.3
2,C#Cc1cccc(Nc2ncnc3cc(OCCOC)c(OCCOC)cc23)c1,1.2
3,COc1cc2ncnc(Nc3ccc(F)c(Cl)c3)c2cc1OCCCN1CCOCC1,3.2

# Target: Serine/threonine-protein kinase 26 (Homo sapiens) (UniProt Q9P289)
# Sequence (Q9P289 2-416 limits assumed): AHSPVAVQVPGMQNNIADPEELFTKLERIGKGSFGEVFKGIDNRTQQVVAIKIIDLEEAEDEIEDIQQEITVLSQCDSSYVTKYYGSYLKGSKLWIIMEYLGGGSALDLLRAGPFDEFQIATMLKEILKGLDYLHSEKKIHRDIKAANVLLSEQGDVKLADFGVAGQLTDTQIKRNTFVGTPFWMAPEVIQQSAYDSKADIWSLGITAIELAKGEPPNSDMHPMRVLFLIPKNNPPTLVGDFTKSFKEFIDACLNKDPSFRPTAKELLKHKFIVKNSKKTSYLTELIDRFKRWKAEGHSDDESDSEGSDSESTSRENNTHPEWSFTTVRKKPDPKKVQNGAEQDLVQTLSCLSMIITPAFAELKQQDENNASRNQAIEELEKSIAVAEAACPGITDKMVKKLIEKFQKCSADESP
row,ΔTm [°C],Compound
1,-0.2,Cn1cc(/C=C2/C(=O)Nc3ccc(S(N)(=O)=O)cc32)c2ccccc21
2,0.6,C#Cc1cccc(Nc2ncnc3cc(OCCOC)c(OCCOC)cc23)c1
3,1.2,COc1cc2ncnc(Nc3ccc(F)c(Cl)c3)c2cc1OCCCN1CCOCC1

# Target: Cyclin-dependent kinase 2 (Homo sapiens, UniProt P24941)
row,ΔTm [°C],Compound
1,1.3,Cn1cc(/C=C2/C(=O)Nc3ccc(S(N)(=O)=O)cc32)c2ccccc21
2,-0.6,C#Cc1cccc(Nc2ncnc3cc(OCCOC)c(OCCOC)cc23)c1
3,0,COc1cc2ncnc(Nc3ccc(F)c(Cl)c3)c2cc1OCCCN1CCOCC1

# Target: Serine/threonine-protein kinase 26 (Homo sapiens) (UniProt Q9P289)
# Remark: another data set of the same source
row,ΔTm [°C],Compound
1,5.7,Cn1cc(/C=C2/C(=O)Nc3ccc(S(N)(=O)=O)cc32)c2ccccc21
2,-0.4,C#Cc1cccc(Nc2ncnc3cc(OCCOC)c(OCCOC)cc23)c1
3,0,COc1cc2ncnc(Nc3ccc(F)c(Cl)c3)c2cc1OCCCN1CCOCC1

# Target: Dual specificity protein kinase CLK2 (Homo sapiens) (UniProt P49760)
# Sequence (P49760 whole entry, looked up): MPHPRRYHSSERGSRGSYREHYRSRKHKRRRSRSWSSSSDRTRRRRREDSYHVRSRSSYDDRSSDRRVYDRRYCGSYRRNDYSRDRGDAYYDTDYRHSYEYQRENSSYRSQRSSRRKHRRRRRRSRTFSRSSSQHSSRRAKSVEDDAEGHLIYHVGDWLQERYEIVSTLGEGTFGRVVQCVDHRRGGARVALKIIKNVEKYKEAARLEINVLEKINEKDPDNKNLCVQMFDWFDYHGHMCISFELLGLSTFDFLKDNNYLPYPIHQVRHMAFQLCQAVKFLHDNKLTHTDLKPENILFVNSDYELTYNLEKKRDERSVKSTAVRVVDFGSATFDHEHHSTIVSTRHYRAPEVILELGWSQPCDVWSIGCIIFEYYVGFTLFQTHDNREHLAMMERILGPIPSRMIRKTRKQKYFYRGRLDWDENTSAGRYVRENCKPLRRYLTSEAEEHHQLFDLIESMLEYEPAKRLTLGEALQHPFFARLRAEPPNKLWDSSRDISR
row,ΔTm [°C],Compound
1,3.6,Cn1cc(/C=C2/C(=O)Nc3ccc(S(N)(=O)=O)cc32)c2ccccc21
2,0.3,C#Cc1cccc(Nc2ncnc3cc(OCCOC)c(OCCOC)cc23)c1
3,0,COc1cc2ncnc(Nc3ccc(F)c(Cl)c3)c2cc1OCCCN1CCOCC1

# Target: Serine/threonine-protein kinase pim-3 (Homo sapiens) (UniProt Q86V86)
row,ΔTm [°C],Compound
1,3.4,Cn1cc(/C=C2/C(=O)Nc3ccc(S(N)(=O)=O)cc32)c2ccccc21
2,-0.1,C#Cc1cccc(Nc2ncnc3cc(OCCOC)c(OCCOC)cc23)c1
3,-0.2,COc1cc2ncnc(Nc3ccc(F)c(Cl)c3)c2cc1OCCCN1CCOCC1

# Target: Calcium/calmodulin-dependent protein kinase type 1D (Homo sapiens) (UniProt Q8IU85)
# Sequence (Q8IU85 whole entry, looked up): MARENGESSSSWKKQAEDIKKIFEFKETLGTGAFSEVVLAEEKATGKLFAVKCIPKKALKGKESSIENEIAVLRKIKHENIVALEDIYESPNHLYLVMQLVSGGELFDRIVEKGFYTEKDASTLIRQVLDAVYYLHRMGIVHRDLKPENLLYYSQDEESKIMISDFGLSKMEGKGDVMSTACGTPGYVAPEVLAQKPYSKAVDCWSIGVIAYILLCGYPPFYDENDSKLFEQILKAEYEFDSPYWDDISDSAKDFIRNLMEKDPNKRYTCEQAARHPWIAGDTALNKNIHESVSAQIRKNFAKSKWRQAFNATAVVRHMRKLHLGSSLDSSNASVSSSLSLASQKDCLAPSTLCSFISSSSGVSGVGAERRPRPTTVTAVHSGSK
row,ΔTm [°C],Compound
1,2,Cn1cc(/C=C2/C(=O)Nc3ccc(S(N)(=O)=O)cc32)c2ccccc21
2,0.1,C#Cc1cccc(Nc2ncnc3cc(OCCOC)c(OCCOC)cc23)c1
3,0.4,COc1cc2ncnc(Nc3ccc(F)c(Cl)c3)c2cc1OCCCN1CCOCC1

# Target: T4, Serine/threonine-protein kinase 17A (Homo sapiens) (UniProt Q9UEE5)
# T4 sequence (whole entry): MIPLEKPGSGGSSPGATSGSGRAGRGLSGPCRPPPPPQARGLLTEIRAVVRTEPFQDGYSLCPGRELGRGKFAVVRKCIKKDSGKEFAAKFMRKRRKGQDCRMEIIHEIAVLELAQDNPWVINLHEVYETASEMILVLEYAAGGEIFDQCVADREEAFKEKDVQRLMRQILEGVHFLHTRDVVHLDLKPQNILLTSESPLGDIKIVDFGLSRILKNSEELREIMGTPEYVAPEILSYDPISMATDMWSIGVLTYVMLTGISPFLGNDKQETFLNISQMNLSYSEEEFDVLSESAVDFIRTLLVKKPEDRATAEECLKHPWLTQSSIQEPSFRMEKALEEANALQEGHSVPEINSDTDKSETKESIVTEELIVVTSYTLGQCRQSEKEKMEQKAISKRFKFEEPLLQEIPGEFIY
row,ΔTm [°C],Compound
1,6.1,Cn1cc(/C=C2/C(=O)Nc3ccc(S(N)(=O)=O)cc32)c2ccccc21
2,0.3,C#Cc1cccc(Nc2ncnc3cc(OCCOC)c(OCCOC)cc23)c1
3,0.6,COc1cc2ncnc(Nc3ccc(F)c(Cl)c3)c2cc1OCCCN1CCOCC1
